# According to publication PMC11677126, “Synthesis and Structure–Activity Relationship of Thiourea Derivatives Against Leishmania amazonensis” (Pharmaceuticals, 2024):
# Where two headings read alike, the source gives them in different places.
# Key:
# [1] = tested on: Leishmania infantum amastigotes; design: method as in PMID 30782984; conditions: cited from earlier work
# [2] = tested on: L. amazonensis intracellular amastigotes; experiment: Antiamastigote assay in infected peritoneal macrophages (infection index); type: cell-based; conditions: Leishmania amazonensis, Peritoneal macrophage, 72 h
# Description: Resident macrophages from BALB/c mice were obtained by peritoneal lavage with 5 mL of cold RPMI medium. The cell suspension was adjusted to a 2 × 10^6 cells/mL concentration and plated in LAB-TEK chambers. After 1 h, the cultures were washed with phosphate-buffered saline at 37 °C to remove non-adherent cells. The remaining cells were incubated at 37 °C/5% CO2 with promastigotes of L. amazonensis at a ratio of 3:1. After 3 h, the chambers were rewashed to remove free parasites. […] For G2, we first tested only at a concentration of 10 µM, and derivatives with inhibition above 60% were evaluated using the dose–response curve. The antiamastigote activity was evaluated microscopically after staining the chambers with the Instant Prov hematological dye system (Newprov, Curitiba, Brazil); at least 100 macrophages were counted per sample. The results were expressed as the infection index (IF) using the following formula: IF = % infected cells X (number of amastigotes/total macrophages). The IC50 value was determined by nonlinear regression using Graph Pad Prism 9.0.
# [3] = tested on: L. amazonensis promastigote; experiment: Antipromastigote assay (resazurin fluorescence); type: cell-based, Leishmania amazonensis; conditions: promastigotes, 72 h at 26 °C
# Description: The fluorescence was measured using a Spectra Max GEMINI XPS spectrofluorometer (Molecular Devices, Silicon Valley, CA, USA) at excitation and emission wavelengths of 560 nm and 590 nm, respectively.
# [4] = tested on: Leishmania major promastigotes; design: method as in PMID 36001225; conditions: after 48 h (text b28); cited from earlier work
# L. infantum amastigote = conditions: cited from earlier work
# L. donovani amastigote = conditions: cited from earlier work
# [5] = tested on: L. amazonensis promastigotes; design: method as in doi:10.5897/JMA2013.0261; conditions: L. amazonensis promastigotes (text b27); cited from earlier work
# [6] = Toxicity assay in murine macrophages (resazurin); type: cell-based; conditions: BALB/c, mouse, mouse peritoneal macrophages
# Description: Mouse peritoneal macrophages (2 × 10^6 cells/mL) in 96-well plates were treated with different concentrations of thiourea compounds (G1: 0–400 µM and G2: 0–125 µM) for 72 h at 37 °C/5% CO2. After removing the supernatant, viable cells were quantified by adding resazurin in phosphate-buffered saline, a final concentration of 50 µM, and then the samples were incubated for an additional 3 h. The fluorescence was measured using a Spectra Max GEMINI XPS spectrofluorometer (Molecular Devices, Silicon Valley, CA, USA) at excitation and emission wavelengths of 560 nm and 590 nm, respectively. The percentage of viable cells was calculated relative to the control cells. The cytotoxic concentrations lethal to 50% of the cells (CC50) were obtained by nonlinear regression of the sigmoid growth curves using the Graph Pad Prism 9.0 software.
# [7] = tested on: Leishmania amazonensis amastigotes; design: method as in PMID 28966275; conditions: read-out: IC50 (amastigote); cited from earlier work
# [8] = tested on: L. amazonensis promastigote; design: method as in PMID 28966275; conditions: cited from earlier work
# [9] = G1 thioureas, maximum concentration tested 25 µM
# [10] = G2 piperazine thioureas, maximum concentration tested 10 µM, unit from footnote
# [11] = Leishmania amazonensis, 72 h, G1 thioureas, maximum concentration tested 100 µM
# [12] = Leishmania amazonensis, 72 h, G2 piperazine thioureas
# [13] = G2 piperazine thioureas, 0–125 µM
# [14] = G1 thioureas, maximum concentration tested 100 µM
structure (smiles),measurement,setting,value
"CCCCCCCCCCCCCCCCOP(=O)([O-])OCC[N+](C)(C)C [Miltefosine, reference compound]",IC50,[1],2.84 ± 0.1 µM
same,IC50,[2]; [9],7.5 ± 1.2 µM
same,IC50,[2]; [10],7.5 ± 1.2 µM
same,IC50,[3]; [11],6.9 ± 2.4 µM
same,IC50,[3]; [12],6.9 ± 2.4 µM
C[C@@H]1[C@H](O)[C@@H](C)/C=C/C=C/C=C/C=C/C=C/C=C/C=C/[C@H](O[C@@H]2O[C@H](C)[C@@H](O)[C@H](N)[C@@H]2O)C[C@@H]2O[C@](O)(C[C@@H](O)C[C@@H](O)[C@H](O)CC[C@@H](O)C[C@@H](O)CC(=O)O[C@H]1C)C[C@H](O)[C@H]2C(=O)O [amphotericin B],IC50,[4],0.2 ± 0.01 µM
CC(C)Oc1cc(C(=O)Nc2cc(-c3ccccn3)n[nH]2)cc(C(=O)N2CCCC2)c1 [Compound 6],IC50,L. infantum amastigote,> 42.4 µM
same,IC50,L. donovani amastigote,≥ 10.9 µM
COc1cc(NC(=S)Nc2nnc(C(F)(F)F)s2)cc(OC)c1OC [Thiourea 3a′],IC50,[3]; [11],77.8 ± 6.7 µM
COc1cc(NC(=S)N2CCN(C(=O)C3CCCO3)CC2)cc(OC)c1OC (stereo not shown) [Thiourea 5r],IC50,[3]; [12],> 128 µM
COc1ccc(NC(=S)NCc2ccccc2)cc1 [Thiourea 3h],IC50,[3]; [11],61.6 ± 6.5 µM
O=C(C1CCCO1)N1CCN(C(=S)Nc2ccccc2)CC1 (stereo not shown) [Thiourea 5a],IC50,[3]; [12],> 128 µM
CCOC(=O)c1ccc(NC(N)=S)cc1 [Thiourea 9],IC50,[5],45 µM
O=C(NNC(=S)NCc1ccccc1)c1ccccc1 [Thiourea 3o],IC50,[3]; [11],80.4 ± 10 µM
CCc1nnc(NC(=S)NCc2ccccc2)s1 [Thiourea 3s],IC50,[3]; [11],58.4 ± 1.9 µM
COc1ccc(CN2CCN(C(=S)NCCc3ccccc3)CC2)c(OC)c1OC [Thiourea 5o],IC50,[3]; [12],> 128 µM
COc1ccc(NC(=S)NCc2ccccc2)cc1OC [Thiourea 3i],IC50,[3]; [11],> 100 µM
S=C(Nc1ccccc1)N1CCN(C(c2ccccc2)c2ccccc2)CC1 [Thiourea 5g],IC50,[2]; [10],> 10 µM
same,IC50,[3]; [12],30.7 ± 3.2 µM
same,CC50 at 72 h,[6]; [13],> 125 µM
COc1cc(NC(=S)NCc2ccccc2)cc(OC)c1 [Thiourea 3k],IC50,[3]; [11],> 100 µM
COc1ccc(CN2CCN(C(=S)Nc3ccccc3)CC2)c(OC)c1OC [Thiourea 5m],IC50,[3]; [12],> 128 µM
CCCCNC(=S)Nc1ccc([Se][Se]c2ccc(NC(=S)NCCCC)cc2)cc1 [Compound 10],IC50,[1],2.36 ± 0.44 µM
Oc1cccc(NC(=S)NCc2ccccc2)c1 [Thiourea 3v],IC50,[3]; [11],> 100 µM
S=C(NCCc1ccccc1)Nc1ccc2c(c1)OCO2 [Compound 8],IC50,[7],70 µM
same,IC50,[8],54.1 ± 6.77 µM
S=C(NCCc1ccccc1)N1CCN(c2nc3ccccc3[nH]2)CC1 [Thiourea 5q],IC50,[2]; [10],> 10 µM
same,IC50,[3]; [12],18.8 ± 3.1 µM
same,CC50 at 72 h,[6]; [13],72.9 ± 32.2 µM
S=C(NCCc1ccccc1)Nc1ccccn1 [Thiourea 3f],IC50,[3]; [11],> 100 µM
S=C(NCc1ccccc1)Nc1ccc(Br)cc1 [Thiourea 3q],IC50,[2]; [9],> 25 µM
same,IC50,[3]; [14],44.4 ± 10.6 µM
same,IC50,[3]; [11],< 50 µM
same,CC50 at 72 h,"[6]; G1 thioureas, 0–400 µM",> 400 µM
S=C(NCCc1ccccc1)N1CCN(Cc2ccc3c(c2)OCO3)CC1 [Thiourea 5f],IC50,[3]; [12],> 128 µM
S=C(NCc1ccccc1)N1CCN(C(c2ccccc2)c2ccccc2)CC1 [Thiourea 5h],IC50,[2]; [10],8.8 ± 3.5 µM
same,IC50,[3]; [12],7.9 ± 1.9 µM
same,CC50 at 72 h,[6]; [13],> 125 µM
S=C(NCCc1ccccc1)N1CCN(c2ccccc2Cl)CC1 [Thiourea 5l],IC50,[2]; [10],> 10 µM
same,IC50,[3]; [12],28.2 ± 2.5 µM
same,CC50 at 72 h,[6]; [13],79.5 ± 19.8 µM
S=C(Nc1ccccc1)Nc1ccc(Br)cc1 [Thiourea 3p],IC50,[2]; [9],8.7 ± 1.4 µM
same,IC50,[3]; [14],32.9 ± 9.5 µM
same,IC50,[3]; [11],< 50 µM
same,CC50 at 72 h,"[6]; G1 thioureas, 0–400 µM",> 400 µM
S=C(Nc1ccccc1)N1CCN(c2ccccc2Cl)CC1 [Thiourea 5j],IC50,[3]; [12],> 128 µM
Cc1sc(NC(=S)NC(=O)C2CC2)nc1-c1ccccc1 [Compound 11],IC50,[4],122 ± 1.41 µM
Cc1ccccc1NC(=S)NCc1ccccc1 [Thiourea 3u],IC50,[3]; [11],56.2 ± 4.2 µM
N=C(N)c1ccc(OCCCCCOc2ccc(C(=N)N)cc2)cc1 [pentamidine],IC50,[5],0.46 µM
